Source: patent US8748456B2, “Pyrazolo piperidine derivatives as NADPH oxidase inhibitors” (Genkyotex SA, priority 2010, dated 2014)

Tests used:
Assay type in all cases: cell-based, human
NOX [1] = test system: T1, NOX; test: Amplex Red measurement of NOX activity (extracellular hydrogen peroxide) in DMSO-differentiated HL60 cells; conditions: DPI 10 μM, NOX activity as % of the activity in control cells, 'usually'
T1 construct: rows headed: Residual activity of DPI-treated cells; other: Amplex Red; DPI 10 μM; NOX activity as % of the activity in control cell
Experimental: Human acute myeloid leukemia cell line HL-60 was cultured in RPMI 1640 (Invitrogen) supplemented with 10% heat-inactivated calf serum, 2 mM glutamine, 100 U/mL penicillin (Sigma), and 100 μg streptomycin (Sigma) at 37° C. under a humidified atmosphere of 5% CO2. HL60 differentiation to the neutrophil phenotype was triggered by adding Me2SO (final concentration 1.25% v/v for 6 days) to the culture medium.
Extracellular hydrogen peroxide was measured using Amplex UltraRed (Molecular Probes). Cells were trypsinized (1× Trypsin-EDTA), collected by centrifugation, and resuspended in HBSS supplemented with 1% glucose. Cells were seeded into black 96-well plates at a density of 50′000 cells in 200 μl testing buffer (HBSS 1% glucose containing 0.005 U/mL horseradish peroxidase (Roche) and 50 μM Amplex Red in the presence or absence of compounds according to the invention. As a control, DPI was included at a final concentration of 10 μM The plates were placed in the fluorescent Optima Fluorescent plate reader and kept at 37° C. during 20 min. Fluorescence was measured for […] with excitation and emission wavelengths of 544 nm and 590 nm respectively. NOX activities were expressed as % of the activity in control cells. […]
The Table 2 below summarizes the percentage of inhibition of NOX activity as measured by Amplex Red using DMSO-differentiated HL60 cells as described above: […]

NOX [2] = test: Chemiluminescence (luminol) measurement of ROS in cells; conditions: NOX activity as % of the activity in control cells, 'usually'
Experimental: ROS was measured using the chemiluminescent probe luminol. Cells were cultured and plated as for Amplex Red except that the Amplex Red agent was replaced by 10 μg/mL luminol (Sigma 09235). Light emission was recorded continuously at 37° C. for 60 minutes using the luminescence function of the FluoStar Optima fluorescent plate reader. The mean of the four blank values was subtracted from each corrected value for each time point. NOX activities were expressed as % of the activity in control cells. Residual activity of DPI-treated cells was usually <10%.

NOX [3] = test: Nitroblue tetrazolium (NBT) test of intracellular and extracellular superoxide in cells; conditions: DPI 10 μM, NOX activity as % of the activity in control cells, 'usually'
Experimental: Intracellular and extracellular superoxide was measured by a colorimetric technique using a quantitative nitroblue tetrazolium (NBT) test. SOD-inhibitable conversion of NBT to formazan, a fine blue precipitate, in the presence of superoxide anion was measured using Fluostar Optima spectrometer (BMG labtech). Following incubation with appropriate stimuli, cells were trypsinized (1× Trypsin-EDTA), collected by centrifugation, and washed with PBS to remove medium. 5×10^5 cells were plated on 48-well plates and incubated in Hank's balanced salt solution containing 0.5 mg/mL NBT with or without 800 U/mL SOD in the presence or absence of compounds according to the invention. As a control, DPI was included at a final concentration of 10 μM. After 2.5 h, cells were fixed and washed with methanol to remove non reduced NBT. The reduced formazan was then dissolved in 230 μl of 2M potassium hydroxide and in 280 μl of dimethylsulfoxide. The absorption was measured at 630 nm. For calculation, the absorbance at 630 nm was normalized for each individual well. The mean of the four blank values was subtracted from each corrected value for each time point. NOX activities were expressed as % of the activity in control cells. Residual activity of DPI-treated cells was usually <10%.

NOX [4] = test system: T2, NOX; test: H2DCF-DA (DCF fluorescence) in HUVEC stimulated with TGF-β; conditions: NOX activity as % of the activity in control cells, 'usually'
T2 construct: rows headed: Residual activity of DPI-treated cells; other: H2DCF-DA, HUVEC + TGF-β; NOX activity as % of the activity in control ce
Experimental: HUVEC are cultured in endothelial basal medium supplemented with hydrocortisone (1 μg/mL, CalbioChem), bovine brain extract (12 μg/mL), gentamicin (50 μg/mL, CalbioChem), amphotericin B (50 ng/mL, CalBioChem EGF (10 ng/mL, and 10% FCS until the fourth passage. When the fifth passage was started, cells were cultured with a lower concentration of FCS (2%) in the absence of EGF, if not indicated otherwise. All experiments were done with cells of the fifth passage. The cells were incubated with OxLDL (oxidized low-density lipoprotein) or its buffer as control for 24 h, before detection of O2^− formation.
HUVEC were plated on coverslips and made quiescent overnight in 0.5% BSA before stimulation with TGF-β. Cells were loaded for 10 minutes with 5 μM CM-H2DCFDA in phenol-red-free medium in the dark and then treated with TGF-β (R&D Systems) in the presence or absence of compounds according to the invention. Cells were then visualized by immunofluorescence microscopy after fixation and staining of the nuclei with DAPI or examined live using confocal microscopy. DCF fluorescence was visualized at an excitation wavelength of 488 nm and emission at 515 to 540 nm. […] For calculation, the absorbance at […] was normalized to absorbance at […] for each individual well. […] NOX activities were expressed as % of the activity in control cells. […]

Measured: Residual activity of DPI-treated cells

c1ccc([I+]c2ccccc2)cc1 [DPI, Diphenyl-iodonium]
< 10%: all assays above
